Values after ≈ are worked out from the molar mass of the structure shown. “Also recorded” adds a separate entry of the source.
Experiments:
Type in all cases: physicochemical
[1] = Solubility of ROY in ethanol; settings: 25 °C, organic solvent or mixture, 25 degrees C
Protocol: For this example, a solution of ROY in ethanol was prepared. A supersaturated solution of 160.3 mg of ROY in 2 mL of ethanol was prepared, having a supersaturation ratio of 6.7.

[2] = Solubility of ROY in water
[3] = Solidification of WAY from ethanol and aqueous ethanol in capillary tubes at different temperatures (Example 6, Table 1)
Protocol: For this example, solutions of the WAY compound were prepared at a supersaturation ratio of 2 in ethanol and in 10% aqueous ethanol. Each of these WAY solutions was introduced into twenty capillary tubes having a stated inner diameter of 0.5–0.6 mm and which had been washed by soaking in distilled water for about 10 minutes, rinsing with ethanol, and drying for at least an hour at 65 degrees C. The capillary tubes were maintained at room temperature and pressure (about 23 degrees C. and at about 45% relative humidity) and were observed periodically.
Solidification of the WAY compound from ethanol and aqueous ethanol solutions was also done at different temperatures (reported below in degrees Celsius). Table 1 summarizes the results of seven sets of twenty capillary tubes under set different sets of conditions.

[4] = Solidification of WAY from supersaturated ethanol solution in 95 capillary tubes (Example 5)
Protocol: A supersaturated solution of WAY in ethanol was prepared, having a supersaturation ratio of 2. The WAY solution was introduced into 95 capillary tubes. The tubes were left open at both ends and allowed to evaporate to the atmosphere. After about 25 minutes, sixty-two capillary tubes contained crystals. […] After about one hour, four additional capillary tubes contained white crystals, nine additional capillary tubes contained yellow crystals, and one additional capillary tube contained a mixture of white and yellow crystals.

| solubility [1] [mg/mL] | solubility in water [2] | Result (solid forms in 20 capillary tubes) ([3]; Solvent Aqueous ethanol, Temp 38 degrees Celsius, Time 0:50, tubes with mixed yellow and white crystals) | Result (solid forms in 20 capillary tubes) ([3]; Solvent Aqueous ethanol, Temp 38 degrees Celsius, Time 0:50, tubes with no solids formed) | Result (solid forms in 20 capillary tubes) ([3]; Solvent Aqueous ethanol, Temp 38 degrees Celsius, Time 1:13, tubes with mixed yellow and white crystals) | Result (solid forms in 20 capillary tubes) ([3]; Solvent Aqueous ethanol, Temp 38 degrees Celsius, Time 1:13, tubes with no solids formed) | Result (solid forms in 20 capillary tubes) ([3]; Solvent Aqueous ethanol, Temp 38 degrees Celsius, Time 1:42, tubes with mixed yellow and white crystals) | Result (solid forms in 20 capillary tubes) ([3]; Solvent Aqueous ethanol, Temp 38 degrees Celsius, Time 1:42, tubes with no solids formed) | Result (solid forms in 20 capillary tubes) ([3]; Solvent Aqueous ethanol, Temp −2 degrees Celsius, Time 4:35, tubes with white crystals) | Result (solid forms in 20 capillary tubes) ([3]; Solvent Aqueous ethanol, Temp −2 degrees Celsius, Time 4:35, tubes with yellow crystals) | Result (solid forms in 20 capillary tubes) ([3]; Solvent Ethanol, Temp 38 degrees Celsius, Time 0:50, tubes with mixed white and yellow crystals) | Result (solid forms in 20 capillary tubes) ([3]; Solvent Ethanol, Temp 38 degrees Celsius, Time 0:50, tubes with no solids formed) | Result (solid forms in 20 capillary tubes) ([3]; Solvent Ethanol, Temp 38 degrees Celsius, Time 1:43, tubes with mixed yellow and white crystals) | Result (solid forms in 20 capillary tubes) ([3]; Solvent Ethanol, Temp 38 degrees Celsius, Time 1:43, tubes with no solids formed) | Result (solid forms in 20 capillary tubes) ([3]; Solvent Ethanol, Temp −2 degrees Celsius, Time 4, tubes with white and yellow crystals) | Result (solid forms in 20 capillary tubes) ([3]; Solvent Ethanol, Temp −2 degrees Celsius, Time 4, tubes with white crystals) | SMILES | solid forms found in capillary tubes ([4]; after about 25 minutes, 95 tubes, sixty-two with crystals) | persistence of high free energy yellow crystals in capillary tubes ([4]; overnight (about thirteen hours and forty minutes), room temperature) |
| --- | --- | --- | --- | --- | --- | --- | --- | --- | --- | --- | --- | --- | --- | --- | --- | --- | --- | --- |
| ~12 (≈ 46.3 mM) | generally insoluble in water | – | – | – | – | – | – | – | – | – | – | – | – | – | – | Cc1cc(C#N)c(Nc2ccccc2[N+](=O)[O-])s1 [ROY, 5-methyl-2-[(2-nitrophenyl)amino]-3-thiophenecarbonitrile] | – | – |
| – | – | 2/20: mixture of yellow | 18/20: no solids formed | 5/20: mixture of yellow | 15/20: no solids formed | 19/20: mixture of yellow | 1/20: no solids formed | 1/20: white crystals | 19/20: yellow crystals | 16/20: mixture of white | 4/20: no solids formed | 17/20: mixture of yellow | 3/20: no solids formed | 2/20: white and yellow | 10/20: white crystals | CC(=O)Nc1ccc(C)cc1[N+](=O)[O-] [WAY, 4-methyl-2-nitro-acetanilide] | forty contained white crystals; also recorded: twenty-two contained yellow crystals | nineteen of those tubes had transformed to white crystals; also recorded: six still contained yellow crystals |

— patent US7041169B2, “Methods of generating and screening for high free energy forms in capillaries” (S.S.C.I., Inc., priority 2000, dated 2006)
